# Columns and labels:
# Assay in all cases: β-arrestin based GPCR screen (PathHunter / GPCRmax), agonist mode
# Assay type in all cases: cell-based
# Design in all cases: host or cells: PathHunter cell lines
# 168 GPCRs [1] = biological target: 168 GPCRs (Homo sapiens, UniProt P21554)
# Protocol: (§1) For agonist determination, cells were incubated with sample to induce response. […] Vehicle concentration was 1%.
# 168 GPCRs [2] = biological target: 168 GPCRs (Homo sapiens, UniProt P43119); conditions: PTGIR
# Protocol: as §1
# 168 GPCRs [3] = biological target: 168 GPCRs (Homo sapiens, UniProt P51582)
# Protocol: as §1
# 168 GPCRs [4] = biological target: 168 GPCRs (Homo sapiens, UniProt P25101); conditions: EDNRA
# Protocol: as §1
# 168 GPCRs [5] = biological target: 168 GPCRs (Homo sapiens, UniProt P21453)
# Protocol: as §1
# 168 GPCRs [6] = biological target: 168 GPCRs (Homo sapiens, UniProt P43220); conditions: GLP1R
# Protocol: as §1
# 168 GPCRs [7] = biological target: 168 GPCRs (Homo sapiens, UniProt P08912); conditions: CHRM5, Agonist
# Protocol: as §1
# 168 GPCRs [8] = biological target: 168 GPCRs (Homo sapiens, UniProt P32745)
# Protocol: as §1
# 168 GPCRs [9] = biological target: 168 GPCRs (Homo sapiens, UniProt P48546); conditions: GIPR
# Protocol: as §1
# 168 GPCRs [10] = biological target: 168 GPCRs (Homo sapiens, UniProt Q9NSD7)
# Protocol: as §1
# 168 GPCRs [11] = biological target: 168 GPCRs (Homo sapiens, UniProt P41146)
# Protocol: as §1
# 168 GPCRs [12] = biological target: 168 GPCRs (Homo sapiens, UniProt P51685); conditions: CCR8, Agonist
# Protocol: as §1
# 168 GPCRs [13] = biological target: 168 GPCRs (Homo sapiens, UniProt P46663); conditions: BDKRB1, Agonist
# Protocol: as §1
# 168 GPCRs [14] = biological target: 168 GPCRs (Homo sapiens, UniProt Q8TCW9)
# Protocol: as §1
# 168 GPCRs [15] = biological target: 168 GPCRs (Homo sapiens, UniProt P51684); conditions: CCR6, Agonist
# Protocol: as §1
# 168 GPCRs [16] = biological target: 168 GPCRs (Homo sapiens, UniProt P46092); conditions: CCR10, Agonist
# Protocol: as §1
# 168 GPCRs [17] = biological target: 168 GPCRs (Homo sapiens, UniProt Q01726); conditions: MC1R
# Protocol: as §1
# 168 GPCRs [18] = biological target: 168 GPCRs (Homo sapiens, UniProt Q9UKP6)
# Protocol: as §1
# 168 GPCRs [19] = biological target: 168 GPCRs (Homo sapiens, UniProt P51677); conditions: CCR3, Agonist
# Protocol: as §1
# 168 GPCRs [20] = biological target: T1, 168 GPCRs (Homo sapiens, UniProt P08173); conditions: CHRM4, Agonist
# T1 sequence (P08173 1-479): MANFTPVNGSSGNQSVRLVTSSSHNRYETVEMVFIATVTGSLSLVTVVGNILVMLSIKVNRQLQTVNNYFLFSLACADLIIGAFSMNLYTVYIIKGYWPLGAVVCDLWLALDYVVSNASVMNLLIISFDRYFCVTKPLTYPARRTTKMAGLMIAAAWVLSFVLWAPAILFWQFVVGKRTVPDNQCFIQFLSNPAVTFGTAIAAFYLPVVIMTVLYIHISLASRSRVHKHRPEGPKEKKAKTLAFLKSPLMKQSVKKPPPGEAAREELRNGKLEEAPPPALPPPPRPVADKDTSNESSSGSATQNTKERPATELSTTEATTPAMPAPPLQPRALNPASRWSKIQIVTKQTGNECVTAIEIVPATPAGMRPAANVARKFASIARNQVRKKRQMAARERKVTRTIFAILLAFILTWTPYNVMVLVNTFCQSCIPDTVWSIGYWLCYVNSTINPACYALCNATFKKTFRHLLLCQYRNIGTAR
# Protocol: as §1
# Chain of 168 GPCRs (Homo sapiens, UniProt P48546) (P48546 22-466): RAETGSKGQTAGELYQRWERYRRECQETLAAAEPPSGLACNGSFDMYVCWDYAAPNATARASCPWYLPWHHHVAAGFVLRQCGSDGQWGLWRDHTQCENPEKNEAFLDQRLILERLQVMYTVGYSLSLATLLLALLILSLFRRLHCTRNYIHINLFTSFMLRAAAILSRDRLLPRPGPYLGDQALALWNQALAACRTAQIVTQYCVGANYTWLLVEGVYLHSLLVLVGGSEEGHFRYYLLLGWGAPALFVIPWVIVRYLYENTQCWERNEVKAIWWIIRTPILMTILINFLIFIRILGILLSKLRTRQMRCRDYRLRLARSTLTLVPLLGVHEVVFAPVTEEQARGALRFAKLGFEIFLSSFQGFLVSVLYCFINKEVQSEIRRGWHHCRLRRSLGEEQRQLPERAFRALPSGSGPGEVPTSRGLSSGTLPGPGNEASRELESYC
# Chain of 168 GPCRs (Homo sapiens, UniProt P46663) (P46663 whole entry): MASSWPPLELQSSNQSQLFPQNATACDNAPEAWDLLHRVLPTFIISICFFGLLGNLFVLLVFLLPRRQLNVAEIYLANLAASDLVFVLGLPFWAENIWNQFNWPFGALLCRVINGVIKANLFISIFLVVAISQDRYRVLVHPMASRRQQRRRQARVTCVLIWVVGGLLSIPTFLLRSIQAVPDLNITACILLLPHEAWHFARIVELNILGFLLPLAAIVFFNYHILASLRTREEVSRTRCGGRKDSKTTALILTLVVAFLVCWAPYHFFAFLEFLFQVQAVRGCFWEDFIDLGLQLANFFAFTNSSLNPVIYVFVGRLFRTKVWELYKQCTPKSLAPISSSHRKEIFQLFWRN
# Chain of 168 GPCRs (Homo sapiens, UniProt Q8TCW9) (Q8TCW9 whole entry): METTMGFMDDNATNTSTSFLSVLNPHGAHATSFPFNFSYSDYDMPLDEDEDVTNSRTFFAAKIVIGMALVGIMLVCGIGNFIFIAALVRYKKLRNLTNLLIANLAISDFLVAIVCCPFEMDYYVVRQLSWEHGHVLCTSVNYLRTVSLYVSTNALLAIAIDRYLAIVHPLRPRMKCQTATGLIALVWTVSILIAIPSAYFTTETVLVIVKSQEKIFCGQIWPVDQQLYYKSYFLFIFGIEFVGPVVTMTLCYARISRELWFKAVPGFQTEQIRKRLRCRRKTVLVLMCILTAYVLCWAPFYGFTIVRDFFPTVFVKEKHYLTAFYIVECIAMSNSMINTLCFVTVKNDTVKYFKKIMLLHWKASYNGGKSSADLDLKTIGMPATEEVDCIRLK
# Chain of 168 GPCRs (Homo sapiens, UniProt P46092) (P46092 whole entry): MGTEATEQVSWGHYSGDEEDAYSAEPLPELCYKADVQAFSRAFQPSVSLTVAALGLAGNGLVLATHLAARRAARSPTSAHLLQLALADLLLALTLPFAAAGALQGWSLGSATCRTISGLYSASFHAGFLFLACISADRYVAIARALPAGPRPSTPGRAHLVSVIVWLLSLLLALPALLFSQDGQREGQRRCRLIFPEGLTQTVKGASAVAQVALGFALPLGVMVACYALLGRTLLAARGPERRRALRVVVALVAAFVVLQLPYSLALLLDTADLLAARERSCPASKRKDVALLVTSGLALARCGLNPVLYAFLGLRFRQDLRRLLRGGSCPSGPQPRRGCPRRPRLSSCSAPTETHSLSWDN
# Chain of 168 GPCRs (Homo sapiens, UniProt P41146) (P41146 whole entry): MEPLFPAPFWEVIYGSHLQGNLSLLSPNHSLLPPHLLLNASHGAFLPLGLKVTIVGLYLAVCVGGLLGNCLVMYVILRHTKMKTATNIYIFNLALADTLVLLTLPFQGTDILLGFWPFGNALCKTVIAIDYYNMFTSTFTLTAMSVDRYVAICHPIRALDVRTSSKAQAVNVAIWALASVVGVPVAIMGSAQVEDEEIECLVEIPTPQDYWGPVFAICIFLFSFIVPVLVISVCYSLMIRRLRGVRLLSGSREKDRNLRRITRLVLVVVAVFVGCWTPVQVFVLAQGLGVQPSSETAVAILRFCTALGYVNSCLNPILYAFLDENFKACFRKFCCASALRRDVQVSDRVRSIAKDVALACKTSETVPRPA
# Chain of 168 GPCRs (Homo sapiens, UniProt P25101) (P25101 21-427): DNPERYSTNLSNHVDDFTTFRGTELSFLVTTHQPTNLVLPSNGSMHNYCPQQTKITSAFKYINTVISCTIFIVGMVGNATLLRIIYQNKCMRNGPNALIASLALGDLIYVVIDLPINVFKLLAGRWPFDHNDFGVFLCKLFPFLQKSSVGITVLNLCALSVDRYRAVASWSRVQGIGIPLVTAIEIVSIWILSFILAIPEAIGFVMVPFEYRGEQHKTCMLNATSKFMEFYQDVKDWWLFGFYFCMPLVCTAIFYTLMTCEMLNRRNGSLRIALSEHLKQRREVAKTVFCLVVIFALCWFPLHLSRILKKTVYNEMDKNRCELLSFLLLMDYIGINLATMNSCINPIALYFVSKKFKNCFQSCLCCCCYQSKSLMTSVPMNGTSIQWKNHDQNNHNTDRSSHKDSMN
# Chain of 168 GPCRs (Homo sapiens, UniProt Q01726) (Q01726 whole entry): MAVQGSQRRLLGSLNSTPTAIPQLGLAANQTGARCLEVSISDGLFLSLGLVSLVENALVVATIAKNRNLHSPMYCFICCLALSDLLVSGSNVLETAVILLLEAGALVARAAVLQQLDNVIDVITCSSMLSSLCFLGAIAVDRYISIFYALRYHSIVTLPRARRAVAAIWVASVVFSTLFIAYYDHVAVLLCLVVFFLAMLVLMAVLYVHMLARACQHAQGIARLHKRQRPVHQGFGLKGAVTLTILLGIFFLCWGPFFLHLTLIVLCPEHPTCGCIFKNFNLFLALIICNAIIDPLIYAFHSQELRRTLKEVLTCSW
# Chain of 168 GPCRs (Homo sapiens, UniProt P51685) (P51685 whole entry): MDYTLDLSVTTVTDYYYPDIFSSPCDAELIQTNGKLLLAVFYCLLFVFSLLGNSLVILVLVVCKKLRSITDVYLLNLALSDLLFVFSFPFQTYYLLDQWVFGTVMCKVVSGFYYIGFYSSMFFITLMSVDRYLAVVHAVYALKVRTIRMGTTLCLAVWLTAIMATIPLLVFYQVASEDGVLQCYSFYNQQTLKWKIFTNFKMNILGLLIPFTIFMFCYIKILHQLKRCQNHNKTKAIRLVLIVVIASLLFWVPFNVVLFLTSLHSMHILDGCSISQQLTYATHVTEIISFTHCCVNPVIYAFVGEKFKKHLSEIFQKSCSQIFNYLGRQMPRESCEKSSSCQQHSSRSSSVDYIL
# Chain of 168 GPCRs (Homo sapiens, UniProt P21554) (P21554 whole entry): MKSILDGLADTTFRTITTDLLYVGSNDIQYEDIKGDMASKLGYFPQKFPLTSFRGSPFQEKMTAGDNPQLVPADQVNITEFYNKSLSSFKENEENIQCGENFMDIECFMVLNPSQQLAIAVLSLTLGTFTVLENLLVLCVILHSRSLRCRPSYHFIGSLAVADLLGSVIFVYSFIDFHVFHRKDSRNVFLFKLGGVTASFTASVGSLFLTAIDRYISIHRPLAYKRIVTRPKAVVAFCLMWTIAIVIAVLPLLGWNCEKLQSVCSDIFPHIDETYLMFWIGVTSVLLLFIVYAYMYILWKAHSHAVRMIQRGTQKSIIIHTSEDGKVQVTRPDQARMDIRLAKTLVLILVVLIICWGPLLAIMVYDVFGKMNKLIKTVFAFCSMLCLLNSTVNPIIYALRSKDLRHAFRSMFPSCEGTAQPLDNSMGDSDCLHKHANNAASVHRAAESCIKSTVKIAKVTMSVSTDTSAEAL
# Chain of 168 GPCRs (Homo sapiens, UniProt P43119) (P43119 whole entry): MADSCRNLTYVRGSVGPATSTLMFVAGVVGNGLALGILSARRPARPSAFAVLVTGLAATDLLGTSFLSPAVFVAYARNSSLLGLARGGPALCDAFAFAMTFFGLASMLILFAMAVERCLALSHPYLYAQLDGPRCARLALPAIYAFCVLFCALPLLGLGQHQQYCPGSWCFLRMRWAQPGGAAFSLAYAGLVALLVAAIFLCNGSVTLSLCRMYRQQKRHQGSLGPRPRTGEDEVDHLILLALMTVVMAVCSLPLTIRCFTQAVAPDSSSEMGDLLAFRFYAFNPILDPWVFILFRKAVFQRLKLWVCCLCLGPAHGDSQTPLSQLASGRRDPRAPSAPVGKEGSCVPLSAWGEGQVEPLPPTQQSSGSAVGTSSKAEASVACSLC
# Chain of 168 GPCRs (Homo sapiens, UniProt Q9UKP6) (Q9UKP6 whole entry): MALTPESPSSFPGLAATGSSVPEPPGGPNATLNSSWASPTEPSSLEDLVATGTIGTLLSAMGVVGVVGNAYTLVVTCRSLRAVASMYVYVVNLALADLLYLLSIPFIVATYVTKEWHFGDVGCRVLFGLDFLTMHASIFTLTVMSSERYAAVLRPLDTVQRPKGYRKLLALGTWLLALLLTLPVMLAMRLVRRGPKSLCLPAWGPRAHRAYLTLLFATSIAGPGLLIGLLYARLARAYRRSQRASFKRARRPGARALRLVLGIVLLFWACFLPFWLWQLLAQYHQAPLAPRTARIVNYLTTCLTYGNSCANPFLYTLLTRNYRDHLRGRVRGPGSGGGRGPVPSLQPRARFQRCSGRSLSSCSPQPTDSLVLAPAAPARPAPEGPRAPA
# Chain of 168 GPCRs (Homo sapiens, UniProt P51677) (P51677 whole entry): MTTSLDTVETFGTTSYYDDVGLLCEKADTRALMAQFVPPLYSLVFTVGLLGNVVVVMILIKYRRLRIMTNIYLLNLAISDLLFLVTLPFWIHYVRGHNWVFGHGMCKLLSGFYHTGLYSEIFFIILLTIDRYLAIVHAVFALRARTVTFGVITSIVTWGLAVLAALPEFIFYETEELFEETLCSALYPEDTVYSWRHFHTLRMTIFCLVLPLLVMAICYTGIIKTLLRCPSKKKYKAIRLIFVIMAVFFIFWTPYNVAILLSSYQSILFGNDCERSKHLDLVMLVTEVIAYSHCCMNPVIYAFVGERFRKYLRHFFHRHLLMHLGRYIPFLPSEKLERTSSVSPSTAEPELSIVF
structure (smiles),measurement,setting,value
"CNC(C)C(=O)c1ccc2c(c1)OCO2 (stereo not shown) [methylone, 3,4-methylenedioxy-N-methylcathinone]",activity at 10 µM,"168 GPCRs [1]; CNR1, Agonist mode, 10 uM",-2.7%
same,activity at 1 µM,"168 GPCRs [1]; CNR1, Agonist, 1 uM",-0.4%
same,activity at 10 µM,"168 GPCRs [2]; Agonist mode, 10 uM",-2.3%
same,activity at 1 µM,"168 GPCRs [2]; Agonist, 1 uM",-4.4%
same,activity at 10 µM,"168 GPCRs [3]; P2RY4, Agonist mode, 10 uM",4.1%
same,activity at 1 µM,"168 GPCRs [3]; P2RY4, Agonist, 1 uM",-3.3%
same,activity at 10 µM,"168 GPCRs [4]; Agonist mode, 10 uM",1.4%
same,activity at 1 µM,"168 GPCRs [4]; Agonist, 1 uM",0.3%
same,activity at 10 µM,"168 GPCRs [5]; EDG1, Agonist mode, 10 uM",0.4%
same,activity at 1 µM,"168 GPCRs [5]; EDG1, Agonist, 1 uM",0.1%
same,activity at 10 µM,"168 GPCRs [6]; Agonist mode, 10 uM",-0.1%
same,activity at 1 µM,"168 GPCRs [6]; Agonist, 1 uM",-0.3%
same,activity at 1 µM,168 GPCRs [7]; 1 uM,7.2%
same,activity at 10 µM,168 GPCRs [7]; 10 uM,8.7%
same,activity at 10 µM,"168 GPCRs [8]; SSTR3, Agonist mode, 10 uM",0.3%
same,activity at 1 µM,"168 GPCRs [8]; SSTR3, Agonist, 1 uM",0.7%
same,activity at 10 µM,"168 GPCRs [9]; Agonist mode, 10 uM",-5.8%
same,activity at 1 µM,"168 GPCRs [9]; Agonist, 1 uM",-2.9%
same,activity at 10 µM,"168 GPCRs [10]; RXFP3, Agonist mode, 10 uM",-8.7%
same,activity at 1 µM,"168 GPCRs [10]; RXFP3, Agonist, 1 uM",-7.6%
same,activity at 10 µM,"168 GPCRs [11]; OPRL1, Agonist mode, 10 uM",-2.3%
same,activity at 1 µM,"168 GPCRs [11]; OPRL1, Agonist, 1 uM",-1.6%
same,activity at 1 µM,168 GPCRs [12]; 1 uM,-0.2%
same,activity at 10 µM,168 GPCRs [12]; 10 uM,-0.6%
same,activity at 1 µM,168 GPCRs [13]; 1 uM,-1.7%
same,activity at 10 µM,168 GPCRs [13]; 10 uM,-2.5%
same,activity at 10 µM,"168 GPCRs [14]; PROKR1, Agonist mode, 10 uM",-2.8%
same,activity at 1 µM,"168 GPCRs [14]; PROKR1, Agonist, 1 uM",-1.3%
same,activity at 1 µM,168 GPCRs [15]; 1 uM,-2.9%
same,activity at 10 µM,168 GPCRs [15]; 10 uM,-3.3%
same,activity at 1 µM,168 GPCRs [16]; 1 uM,-2%
same,activity at 10 µM,168 GPCRs [16]; 10 uM,-1.8%
same,activity at 10 µM,"168 GPCRs [17]; Agonist mode, 10 uM",-4.4%
same,activity at 1 µM,"168 GPCRs [17]; Agonist, 1 uM",-2.6%
same,activity at 10 µM,"168 GPCRs [18]; UTR2, Agonist mode, 10 uM",0%
same,activity at 1 µM,"168 GPCRs [18]; UTR2, Agonist, 1 uM",0.6%
same,activity at 1 µM,168 GPCRs [19]; 1 uM,-6.7%
same,activity at 10 µM,168 GPCRs [19]; 10 uM,-7.6%
same,activity at 1 µM,168 GPCRs [20]; 1 uM,-5.8%
same,activity at 10 µM,168 GPCRs [20]; 10 uM,-6.2%

# From patent US12343326B2, “Psychoactive medicines and their use for treating psychiatric and neurological conditions and disorders” (Transcend Therapeutics, Inc., priority 2021, dated 2025)
